Measured values from PubChem BioAssay (NCI).
Several values for one entry are separate records, joined by “and”; a condition that tells them apart may be missing. Identical values can stand only once.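 Compound exposure: 48 hours, 5 concentrations, 96-well plates. GI50 = concentration required for 50% inhibition of growth. TGI: total growth inhibition.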

Assays:
Experiment in all cases: DTP human tumour cell line panel, 48 h
[1] = system: EKVX NSCLC
[2] = system: HS 578T breast
[3] = system: MCF7 breast
[4] = system: OVCAR-5 ovarian
[5] = system: PC-3 prostate
[6] = system: UACC-62 melanoma
[7] = system: MOLT-4 leukemia
[8] = system: NCI-H460 lung
[9] = system: SK-MEL-28 melanoma
[10] = system: UO-31 renal

SMILES | GI50 [1] | TGI [1] | GI50 [2] | TGI [2] | GI50 [3] | TGI [3] | GI50 [4] | TGI [4] | GI50 [5] | TGI [5] | GI50 [6] | TGI [6] | GI50 [7] | TGI [7] | GI50 [8] | TGI [8] | GI50 [9] | TGI [9] | GI50 [10] | TGI [10]
COc1ccc(C2CC(c3cc(OC)c(OC)c(OC)c3)=NN2C(C)=O)cc1OCC(=O)Nc1nc2ccc(C(F)(F)F)cc2s1 (stereo not given) | 4.1 µM | > 100 µM | 2.48 µM | 7.74 µM | 4.02 µM | > 100 µM | 28.2 µM | > 100 µM | 2.92 µM | > 100 µM | 3.77 µM | > 100 µM | – | – | – | – | – | – | – | –
CC(C)(C)c1n[nH]c(=S)n(/N=C/c2ccc(F)c(Oc3ccccc3)c2)c1=O | 41.6 µM | > 100 µM | 31.4 µM | 85.8 µM | 40.5 µM | > 100 µM | 54.3 µM | > 100 µM | 38.6 µM | > 100 µM | 38.2 µM | > 100 µM | 39.8 µM | > 100 µM | 31 µM | > 100 µM | 20.7 µM | > 100 µM | 33.9 µM | > 100 µM
O=C(C1CCCCC1)[C@@H]1[C@]2(C(=O)NC3CCCCC32)[C@@H]2CCCN2[C@@]12C(=O)NC1CCC(Cl)CC12 (stereo not given in full) | 69.9 µM | 217 µM | 153 µM | 422 µM | 41.8 µM | 185 µM | 149 µM | 284 µM | – | – | 91.9 µM | 215 µM | 32.2 µM | 213 µM | 134 µM | 308 µM | 129 µM | 278 µM | 54.1 µM | 226 µM
c1ccc2c(c1)c(NCCCCN1CCCCC1)cc1c3ccccc3c(NCCCCN3CCCCC3)cc21 | 19.9 µM | 42 µM | 27.5 µM | 68.6 µM | 4.76 µM | 23.2 µM | 24.3 µM | 48.9 µM | 13.4 µM | 78.5 µM | 19.5 µM | 35.4 µM | 6.96 µM | > 100 µM | 18.3 µM | 53.7 µM | – | – | 28.7 µM | > 100 µM
O=C(/C(=C/c1ccccc1)CN1CCCCC1)c1ccccc1 | 2.51 µM | 9.23 µM | 5.03 µM | 65.6 µM | 0.464 µM | 2.85 µM | 1.98 µM | 3.98 µM | 2.2 µM | 9.26 µM | 1.42 µM | 4.36 µM | 0.403 µM | 31.8 µM | 2.05 µM | 4.91 µM | 1.63 µM | 3.5 µM | 0.996 µM | 2.3 µM
C[C@]12CCC3[C@@H](CC[C@@H]4c5nonc5CC[C@]34C)C1CCC(=O)N2 (stereo not given in full) | – | > 100 µM | > 100 µM | > 100 µM | > 100 µM | > 100 µM | – | > 100 µM | 68.3 µM | > 100 µM | > 84 µM | > 100 µM | > 59.7 µM | > 100 µM | – | > 100 µM | – | > 100 µM | – | > 100 µM
N#Cc1c(N/N=C/c2c(Cl)cccc2Cl)nc(N)nc1N1CCOCC1 | 54.1 µM | > 100 µM | 13.3 µM | 82.1 µM | 3.18 µM | > 100 µM | 43.4 µM | > 100 µM | 3.91 µM | 95.8 µM | 3.7 µM | 31.4 µM | 4.08 µM | 40.6 µM | 5.32 µM | > 100 µM | 82.1 µM | > 100 µM | 14.5 µM | 86.4 µM
Cc1ccc(C(=O)Nc2cccc(C(F)(F)F)c2)cc1Nc1nc(-c2cccnc2)nc2c1cnn2C | 3.22 µM and 2.59 µM | 21.3 µM and > 10 µM | 1.94 µM and 1.41 µM | 7.14 µM and 4.91 µM | 2.42 µM and 1.98 µM | 7.65 µM and 6.24 µM | 1.36 µM and 0.845 µM | 15.1 µM and > 10 µM | 3.05 µM and 2.65 µM | 11.1 µM and > 10 µM | 0.628 µM and 0.335 µM | 5.37 µM and 4.25 µM | 1.78 µM and 0.886 µM | 11 µM and > 10 µM | 2.84 µM and 2.54 µM | 12.5 µM and 7.19 µM | 0.866 µM and 0.389 µM | 7.66 µM and 3.4 µM | 1.08 µM and 0.477 µM | 8.99 µM and 5.11 µM
COc1cc2c(cc1OCCCCOc1cc3c(cc1OC)C(=O)N1CCC[C@H]1CN3)N=C[C@@H]1CCCN1C2=O | 5.13 µM | 76.5 µM | 0.823 µM | 2.63 µM | 0.346 µM | 1.76 µM | 3.09 µM | > 28.7 µM | 2.02 µM | 97.9 µM | 1.3 µM | 3.03 µM | 0.282 µM | > 100 µM | 2.92 µM | > 100 µM | 2.86 µM | 11.8 µM | 2.89 µM | > 23.9 µM
O=S(=O)(NCCNC/C=C/c1ccc(Br)cc1)c1cccc2cnccc12 | 5.25 µM and 6.38 µM | 22.9 µM and 20.5 µM | 4.62 µM and 12 µM | 42 µM and 51.9 µM | 8.98 µM and 9.53 µM | 25.1 µM and 25.4 µM | 13.4 µM and 12.9 µM | 27.5 µM and 28 µM | 7.18 µM and 11.2 µM | 21.2 µM and 24.5 µM | 9.35 µM and 14.5 µM | 22.2 µM and 30.2 µM | > 20.4 µM and 7.23 µM | > 45 µM and 27.7 µM | 9.76 µM and 15.4 µM | 26.2 µM and 31.6 µM | 7.33 µM and 11.2 µM | 20 µM and 25.4 µM | 4.8 µM and 5.17 µM | 18.4 µM and 20.2 µM
C[C@]12CC[C@H]3[C@@H](CCC4=CC(=O)CC[C@@H]43)[C@@H]1CC[C@@H]2OC(=O)CCc1ccccc1 | 2.23 µM | 28.7 µM | 4 µM | 21.8 µM | 15.3 µM | 31.1 µM | 42.8 µM | > 81.5 µM | 24.4 µM | > 84.2 µM | 9.64 µM | 35.7 µM | 17.5 µM | 49.6 µM | 17.1 µM | 35.6 µM | 16.8 µM | 37 µM | 18.6 µM | 39.2 µM
Clc1cc(Cl)c(OCC#CI)cc1Cl | 14 µM | 30.2 µM | 16.9 µM | 50.4 µM | 1.69 µM | 3.58 µM | 13.7 µM | 27.2 µM | 12.7 µM | 27.9 µM | 5.05 µM | 19.4 µM | 2.05 µM | 6.11 µM | 15.5 µM | 30.9 µM | 2.12 µM | 5.14 µM | – | –
CS(=O)(=O)c1ccc(C(=O)Nc2ccc(Cl)c(-c3ccccn3)c2)c(Cl)c1 | – | > 100 µM and 14.9 µM | – | > 100 µM | – | > 100 µM and 14.9 µM | – | > 100 µM and 94.6 µM | – | > 100 µM and 33.7 µM | – | – | – | > 100 µM and 14.7 µM | – | – | – | > 100 µM and 16.3 µM | 12.1 µM and 3.66 µM | > 42.6 µM and 27 µM
